Consider 4 molecules from US12364681B2, “Combined MAPK and NAMPT inhibition for treatment of neuron degeneration” (The Johns Hopkins University, priority 2021, dated 2025).

For data set [1], the system named is axotomized murine DRG axons. The experiment in a line: Axonal degeneration (degeneration index) of transected axons. It counts as cell-based. The method, then:
(§1) The role of the DLK/LZK MAPK pathway in regulating NAD and SARM1 pathways of axonal degeneration was established. Its role in regulating levels of the NAD-synthesizing enzyme NMNAT2 after injury was explored by treating murine DRG axons with the DLK/LZK inhibitor GNE-3511 after axotomy.
To assess the therapeutic potential of post-axotomy MAPK inhibition, axons were treated with GNE-3511 at different time points before or after axotomy (2 h pre-treatment, immediately after axotomy, 0 h, or 2 and 4 hours post-injury).
Due to the different mechanism of action of MAPK and NAMPT inhibition, therapeutic synergy was further tested by treating axotomized axons with the MAPK inhibitor GNE at the time of injury and the NAMPT inhibitor FK866 at different time points (2, 4, 6 or 8 hours post injury).
Transected axons were treated with the NAMPT inhibitor FK866 after injury and NaR was added concurrently or at 3, 6, 9, or 24 hours post axotomy. Statistical analysis of degeneration index was performed by two-way ANOVA for the effect of time (F(4,32)=62.77, p<0.0001), treatment (F(5,8)=17.05, p=0.0004), and their interactions (F(20,32)=16.82, p<0.0001) with Holm-Šidák's multiple comparisons. […] See FIG. 15 (error bars indicate +/−1 SEM).
Transected axons were treated at the time of injury with the DLK inhibitor GNE-3511 or vehicle (DMSO) and with the combination of FK866/NaR either at the time of injury or with an 8-hour delay. […] Statistical analysis of degeneration index was performed by two-way ANOVA for the effect of time (F(2.143, 17.15)=49.43, p<0.0001), treatment (F(3,8)=9.58, p=0.005), and their interactions (F(18,48)=13.99, p<0.0001) with Holm-Šidák's multiple comparisons. […] See FIG. 16B (error bars indicate +/−1 SEM).

For data set [2], the system named is NAD+ pathway metabolites (NMN, NAD+, cADPR, Nam) in transected axons. In words: Metabolite analysis of distal axons 8 hours post axotomy. It counts as cell-based. The method, then: Axons were transected and treated with vehicle (DMSO), the NAMPT inhibitor FK866, or FK866+NaR. Axons were collected at 8 hours post axotomy for metabolite analysis. […] Statistically significant changes between treated and untreated transected axons were analyzed with one-way ANOVA and Holm-Šidák's multiple comparisons; *=p<0.05, **=p<0.01, ***=p<0.001, #=p<0.0001. Error bars indicate +/−1 SEM.
Relative changes in protein-normalized levels of metabolites in distal axons were measured at 8 hours following transection and treatment at the time of injury with the MAPK inhibitor GNE-3511, the NAMPT inhibitor FK866 in combination with NaR, or with the three compounds together.

For data set [3], the system named is JNK, SCG10, NMNAT2 and α-Spectrin in murine DRG axons. In words: Western blot of distal axons after axotomy. It counts as cell-based. The method, then: as §1
Western blot analysis of distal axons was performed at 4 and 8 hours after transection and treatment with the DLK inhibitor GNE3511 or vehicle (DMSO).
On the technique in general: In western blotting, separated proteins are transferred to a membrane and probed.

The test system of data set [4] is retinal ganglion cells (RGCs). The experiment in a line: Impact acceleration (IA) TBI model: RGC survival, SNCG staining of retinal whole-mounts. Type of data set: in vivo, mice. The note with it: intraperitoneal 60 mg/kg, treatment 21 days after IA; vehicle 1500 cells/mm2; p<0.05. The source says: Experimental subjects and IA procedures Eight-week-old male C57BL/6 J wild-type mice and transgenic Dlk^fl/fl and Dlk^fl/flLzk^fl/fl mice were subjected to IA or sham injury. Male mice were chosen such as to avoid the confounding effects of sex hormones on injury outcomes. Wild-type mice and founders were purchased from Charles River Laboratories (Wilmington, MA). Animals were housed in a vivarium with a 12-h light/12-h dark cycle and given ad libitum access to food and water. All animal handling as well as surgical and postoperative procedures were carried out according to protocols approved by the Animal Care and Use Committee of the Johns Hopkins Medical Institutions.
Impact acceleration injury was performed with height weight settings generating kinetic energy of 0.45-0.5 Jupon impact, essentially as described (FIG. 21). Immediately prior to injury, the cranium was exposed and a 5 mm-thick stainless-steel disc was glued onto the skull midway between bregma and lambda sutures. Surgical procedures and injury were performed under aseptic conditions with gas anesthesia (isoflurane:oxygen:nitrous oxide=1:33:66). Immediately after injury the disc was removed the skull was checked under the surgical microscope for skull fractures. The rare animals with skull fractures were excluded from further study because such events introduce injuries variables that cannot be easily controlled. […]

For data set [5] the following is noted: in vivo; cited from earlier work.
Where [6] appears, read: treatment immediately after axotomy.
Setting [7] is: GNE vs FK+NaR and vs FK+NaR+GNE.

The structures appear in SMILES notation.

In the case of `O=C(/C=C/c1cccnc1)NCCCCC1CCN(C(=O)c2ccccc2)CC1` [FK866], the “protection from axonal degeneration” value in data set [1] (in the absence of GNE-3511, added 2, 4, 6 or 8 hours post injury) was “provided protection especially when added at 2 hours”. In data set [1] (with GNE-3511 at the time of injury, FK-866 added 2, 4, 6 or 8 hours post injury), the “protection from axonal degeneration” value is “enhanced at 2, 4 and 6 hours post injury”. In data set [2], the “NAD+ degrading activity (cADPR/NAD+) relative to vehicle” value is recorded as “suppressed the NAD+ degrading activity”, the “NAD+/NMN ratio compared to vehicle” value is listed as “increases”, the “NMN/Nam ratio compared to vehicle” value is given as “reductions” and the “cADPR levels relative to vehicle” value was “only the combined treatment suppressed cADPR levels”. Besides, in data set [2] (treatment at time of injury), the “NAD+ levels compared to vehicle treated transected axons” value is “protects NAD+ levels” and the “NMN levels compared to vehicle treated transected axons” value is “suppressed NMN”.

For `N#Cc1ccnc(Nc2cc(C3CCN(C4COC4)CC3)cc(N3CCC(F)(F)C3)n2)c1` [GNE-3511], the “injury associated degradation of SCG10” value in data set [3] (4 and 8 hours after transection) was “suppressed the injury associated degradation of SCG10”. The “phosphorylation of JNK” value in data set [3] (4 hours after transection, vs vehicle (DMSO), n=3) is reported as “suppressed phosphorylation of JNK”. For the same molecule, the “injury associated degradation of spectrin (p150 fragment to total spectrin)” value in data set [3] (8 hours after transection) is reported as “suppressed”. Moreover, the “degradation of NMNAT2 between 4 and 8 hours post-axotomy” value in data set [3] (significantly degraded in vehicle treated axons) is given as “not in the presence of GNE”. For the same molecule, in data set [3] (setting [6]), the “calpain-mediated degradation of α-Spectrin” value is “ameliorated the calpain-mediated degradation”, the “degradation of NMNAT2” value is recorded as “reduced the degradation”, the “phosphorylation of SCG10” value is “reduced phosphorylation” and the “phosphorylation of the downstream JNKs” value was “reduced phosphorylation”. Further, in data set [1] (applied before (2 h pre-treatment) or immediately following injury (0 h)), the “protection from axonal degeneration” value is reported as “Significant protection”. Moreover, the “protection from axonal degeneration” value in data set [1] (more delayed regimes (2 and 4 hours post-injury)) is given as “lesser protection”. Further, the “cADPR/NAD+ ratio, difference vs FK+NaR” value in data set [2] is listed as “significant differences”. In data set [2] (setting [7]), the “NAD+/NMN ratio, difference between treatment groups” value was “significant differences” and the “Nam/NAD+ ratio, difference between treatment groups” value was “significant differences”. Besides, in data set [2] (treatment at time of injury), the “NAD+ levels compared to FK+NaR or the triple combination” value is “greater protection of NAD+ levels”.

On to `NC(=O)c1ccc[n+]([C@@H]2O[C@H](CO)[C@@H](O)[C@H]2O)c1` [NaR, nicotinamide riboside], for which the “axon protection (degeneration index) compared to FK866 alone” value in data set [1] (NaR added 3, 6 or 9 hours post-axotomy in the presence of FK866, up to 4 days post-injury, p<0.0001) is given as “significantly protected axons”; in data set [1] (NaR added at 24 hours in the presence of FK866), “no additive effect”. Also, the “delay of NaR supplementation after axotomy with minimal and/or no loss of efficacy in suppressing axon fragmentation” value in data set [1] (in the presence of FK866 given after injury) is “up to 9 hours”.

Take `CCN(CC)CCNC(=O)c1c(C)[nH]c(/C=C2\C(=O)Nc3ccc(F)cc32)c1C` [sunitinib]: the “number of surviving RGCs” value in data set [4] is approximately 2300 cells/mm2. For the same molecule, in data set [5], the CNS penetration result was “penetrates the CNS”.
